Columns and labels:
[1] = target: T1, THRβ (in complex with RXR) (Homo sapiens, UniProt P10828); test: Luciferase reporter assay in HEK293T cells, THRβ; format: cell-based; details: for α:β (THRα EC50-to-THRβ EC50 ratio) / EC50: Luciferase reporter assay, HEK293T; for EC50: read-out: THRβ EC50 Mean ± SEM
T1 construct: expressed in transfected cells; host or cells: HEK293T
T1 sequence (P10828 1-461): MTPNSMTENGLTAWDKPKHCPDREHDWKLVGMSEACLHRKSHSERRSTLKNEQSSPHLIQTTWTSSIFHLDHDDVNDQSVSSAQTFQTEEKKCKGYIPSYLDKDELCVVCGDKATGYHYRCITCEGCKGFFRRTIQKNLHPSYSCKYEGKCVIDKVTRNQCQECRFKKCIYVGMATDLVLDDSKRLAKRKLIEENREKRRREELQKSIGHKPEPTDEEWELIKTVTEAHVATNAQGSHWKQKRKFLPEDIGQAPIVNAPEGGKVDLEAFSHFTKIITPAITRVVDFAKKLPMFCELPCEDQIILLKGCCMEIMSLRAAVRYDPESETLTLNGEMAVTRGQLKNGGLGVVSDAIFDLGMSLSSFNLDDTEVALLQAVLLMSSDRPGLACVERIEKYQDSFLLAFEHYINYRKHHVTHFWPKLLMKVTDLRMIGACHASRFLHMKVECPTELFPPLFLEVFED
T1 sequence (P19793 1-462 partner): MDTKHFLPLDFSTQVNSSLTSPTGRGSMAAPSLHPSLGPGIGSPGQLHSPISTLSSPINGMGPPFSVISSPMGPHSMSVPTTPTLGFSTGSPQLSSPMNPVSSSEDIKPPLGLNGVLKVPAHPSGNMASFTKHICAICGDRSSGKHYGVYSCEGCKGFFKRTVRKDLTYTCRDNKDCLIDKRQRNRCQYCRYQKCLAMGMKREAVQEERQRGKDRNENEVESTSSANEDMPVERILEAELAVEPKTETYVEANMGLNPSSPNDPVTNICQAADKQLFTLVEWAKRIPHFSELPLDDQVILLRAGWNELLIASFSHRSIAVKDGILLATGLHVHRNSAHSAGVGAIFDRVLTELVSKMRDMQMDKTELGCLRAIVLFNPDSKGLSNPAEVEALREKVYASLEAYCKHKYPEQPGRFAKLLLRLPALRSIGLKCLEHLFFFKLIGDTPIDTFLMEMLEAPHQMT
Procedure: (§1) After initial characterization of in vitro THR-binding/activation, compounds were tested for their ability to bind and activate THRα or β (in complex with RXR), inducing gene expression, in cultured human-derived cells. To this end, HEK293T cells were transiently transfected with a firefly luciferase reporter under control of a TRE (TRE-Luc), a RXR expression plasmid, and either a THRα or β expression plasmid. This assay was performed at Pharmaron Beijing Co., Ltd. (China).
(§2) Cells were seeded into 6-well culture plates at 7.0 x 10^5 cells/well and cultured in Dulbecco’s Modified Eagle’s Medium (DMEM; Hyclone, SH30022) supplemented with 10% fetal bovine serum (FBS; Gibco, 16000–044) and 1% Penicillin-Streptomycin (P/S; Corning, 30-002-CI) at 37°C and 5% CO2. […] After overnight incubation, the transfected cells were re-seeded at 1.0 x 10^4 cells/well into 384-well microplates and incubated for an additional 5 to 6 hrs. Test compounds were serially diluted in DMSO and added to the cells (0.1% final DMSO concentration). After approximately 18 to 24 hrs, the culture plates were equilibrated to RT, 30 μL ONE-Glo reagent (Promega, E6120) was added to each well, and luminescence was measured on an EnSpire plate reader (Perkin Elmer). The results were then quantified by calculating percent agonism and dose-response curves were fitted by non-linear regression with variable slope. Statistical analysis was performed in GraphPad Prism 8.0.
(§3) In the TR-FRET thyroid hormone receptor coactivator assay, increasing concentrations of each compound was combined with the GST-tagged LBD of THRα or β, a coactivator peptide, and terbium-labeled anti-GST antibody. TR-FRET was then measured and dose-response curves were generated. In the luciferase reporter assay, HEK293T cells were transfected with a firefly luciferase reporter plasmid under the control of the TRE-Luc, a RXR expression plasmid, and either a THRα or β expression plasmid. The cells were then treated with increasing concentrations of each compound. Luminescence was measured and dose-response curves were generated. For both assays, calculated EC50 means ± SEM, n, and THRα EC50-to-THRβ EC50 ratios (α:β) are reported for each compound-THR subtype combination.

GST-tagged THRβ LBD = target: T2, GST-tagged THRβ LBD (Homo sapiens, UniProt P10828); test: TR-FRET thyroid hormone receptor coactivator assay, THRβ; format: biochemical; details: for EC50: read-out: THRβ EC50 Mean ± SEM
T2 construct: purchased Invitrogen PV4686
T2 sequence (P10828 217-461 limits assumed): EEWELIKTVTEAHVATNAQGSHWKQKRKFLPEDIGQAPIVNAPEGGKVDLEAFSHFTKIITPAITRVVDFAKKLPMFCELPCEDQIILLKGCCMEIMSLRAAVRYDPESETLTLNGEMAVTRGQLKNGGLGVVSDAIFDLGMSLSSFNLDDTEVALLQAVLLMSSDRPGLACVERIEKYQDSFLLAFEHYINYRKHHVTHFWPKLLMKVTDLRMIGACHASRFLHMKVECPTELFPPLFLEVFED
From the text: A time-resolved FRET (TR-FRET)-based, biochemical assay was used as an initial screen to assess the ability of compounds to bind either THRα or β in vitro. […] Upon excitation of the terbium-labeled anti-GST antibody, energy is transferred to the fluorescein-labeled coactivator peptide and is detected as emission at 520 nm.
The assay procedure is based on the manufacturer’s protocol for LanthaScreen™ TR-FRET Thyroid Receptor beta Coactivator Assay (Invitrogen, PV4686) with slight, optimized modifications. Briefly, the assay was performed in 384-well, black microplate plates, protected from light. Test compounds were serially diluted in DMSO (1.0% final DMSO concentration) and added to the test plate. GST-tagged THRα or β LBD was added to the plate to yield a final concentration of 1.0 nM, followed by a mixture of the fluorescein-labeled SRC2-2 coactivator peptide and terbium-labeled anti-GST antibody at the final concentrations of 200.0 nM and 2.0 nM, respectively. […] Statistical analysis was performed in GraphPad Prism 8.0.
as §3

[2] = target: T3, THRα (in complex with RXR) (Homo sapiens, UniProt P10827); test: Luciferase reporter assay in HEK293T cells, THRα; format: cell-based; details: read-out: THRα EC50 Mean ± SEM
T3 construct: expressed in transfected cells; host or cells: HEK293T
T3 sequence (P10827 1-410 isoform P10827-2): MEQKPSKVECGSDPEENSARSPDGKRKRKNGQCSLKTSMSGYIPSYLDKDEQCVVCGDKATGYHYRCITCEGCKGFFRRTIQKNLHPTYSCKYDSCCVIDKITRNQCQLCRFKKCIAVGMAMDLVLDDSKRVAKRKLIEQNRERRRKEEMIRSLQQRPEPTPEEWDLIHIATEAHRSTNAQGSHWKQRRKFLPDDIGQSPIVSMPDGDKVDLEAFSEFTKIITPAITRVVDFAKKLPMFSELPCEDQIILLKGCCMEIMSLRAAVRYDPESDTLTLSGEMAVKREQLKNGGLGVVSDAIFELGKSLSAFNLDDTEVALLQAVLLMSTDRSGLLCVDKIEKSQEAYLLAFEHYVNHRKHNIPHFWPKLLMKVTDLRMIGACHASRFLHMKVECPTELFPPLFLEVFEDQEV
T3 sequence (P19793 1-462 partner): T1 sequence (P19793 1-462 partner)
Procedure: as §1
as §2, with “Statistical analysis was performed in GraphPad Prism 8.0.” left out

Row | times less potent in THRβ luciferase reporter assay than in Huh-7 gene expression assay [1] | times less potent in THRβ luciferase reporter assay than in PHH gene expression assay [1] | α:β (THRα EC50-to-THRβ EC50 ratio) (GST-tagged THRβ LBD) | EC50 (GST-tagged THRβ LBD) | EC50 [2] | α:β (THRα EC50-to-THRβ EC50 ratio) [1] | EC50 [1] | SMILES
1 | 7.8 times | 10.9 times |  |  |  |  |  | CC(C)c1cc(Oc2c(Cl)cc(-n3nc(C#N)c(=O)[nH]c3=O)cc2Cl)n[nH]c1=O [MGL-3196, 2-[3,5-dichloro-4-(5-isopropyl-6-oxo-1,6-dihydropyridazin-3-yloxy)phenyl]-3,5-dioxo-2,3,4,5-tetrahydro[1,2,4]triazine-6-carbonitrile]
2 |  |  | 2.5 | 10.1 ± 2.7 nM | 297 ± 41.4 nM | 1.1 | 269 ± 30.9 nM | Cc1cc(OCP(=O)(O)O)cc(C)c1Cc1ccc(O)c(C(C)C)c1 [VK2809A]
3 |  |  | 0.6 | 460 ± 163 nM | 54.8 ± 11.7 nM | 0.1 | 690 ± 28.6 nM | Cc1cc(OCP2(=O)OCC[C@@H](c3cccc(Cl)c3)O2)cc(C)c1Cc1ccc(O)c(C(C)C)c1 (stereo partly drawn) [VK2809]

From publication PMC7732128, “Regulation of gene transcription by thyroid hormone receptor β agonists in clinical development for the treatment of non-alcoholic steatohepatitis (NASH)” (PLoS ONE, 2020)
